The values below come from patent publication US8435929B2, “1-aminocyclopropane carboxylic acid as a fruit thinner” (Valent BioSciences Corporation, priority 2009, dated 2013).

Series [1] concerns PF-27 peaches. Kind of series: Field thinning study, ACC and ABA, fruit set of PF-27 peaches. Type of series: in vivo, peach. Conditions: 1000 ppm, application at shuck split. The text has this:
Application of ACC alone at shuck split reduced fruit set in a dose dependent manner (Table 10).

The test system of series [2] is Babygold #5 peaches. Kind of series: Scaffold gummosis rating of Babygold #5 peaches. In kind it is in vivo, peach. The text has this: Gummosis is a physiological stress response in which sap oozes from fractures in tree bark and often leads to tree decline. Use of 2-chloroethylphosphonic acid as a stone fruit thinning has been limited because it can stimulate severe incidences of gummosis of stone fruit.

Series [3] has as its system cotton cotyledons. Kind of series: Cotton cotyledon bioassay, ethylene production. In kind it is in vivo. The source says: For laboratory and growth chamber studies, deionized ultra-pure water was used in preparing solutions. Spray solutions were used as soon as possible after mixing. All spray solutions were amended with spray adjuvants as appropriate. A cotton cotyledon bioassay was used in the laboratory to study the effects of ACC or ethephon on induction of ethylene. Ten day old cotton plants with fully expanded cotyledons were used. Sprays were made to the upper (adaxial) surface of the leaves and the plants were then incubated in growth cabinets at the temperatures indicated. The cotyledons were excised at the times indicated and placed in sealed plastic vials. Headspace ethylene samples were measured on a Hewlett Packard 5890 gas chromatograph equipped with a packed Haysep T column (Alltech, Deerfield, Ill.) and a flame ionization detector.
Selected characteristics of ACC conversion to ethylene (i.e. dose response, time course, and temperature effect) were assessed to determine whether the relative consistence of ACC as a stone fruit and apple thinner was related to performance as an ethylene producer. In these bioassays, ACC solutions were applied to cotton cotyledons by a hand sprayer at the doses indicated and all spray solutions contained 0.05% (v/v) L-77.
In the first study, the effect of ACC dose sprays on ethylene produced by cotton cotyledons was determined. (Table 16). Cotton plants were sprayed with solution (ACC at 1, 10, 25, 50, 100, 250, 500, or 1000 ppm) and the cotyledons were excised 6 or 24 h after spraying and incubated in sealed tubes for 4 h. Ethylene levels were determined production was assayed.
In the second study, the time course of ethylene production following application of 500 mg/liter ACC or ethephon was determined (Table 17).
In the third study, the effect of temperature on ethylene production following ACC or ethephon application was determined (Table 18). The incubation of the plants following spraying and the incubation of the detached leaves were performed at 25 and 35° C.

Series [4] has as its system Babygold #5 peach. Kind of series: Field thinning study, fruit set of Babygold #5 peach. In kind it is in vivo. Particulars: rate not given, 10 mm fruitlet timing.

As for `CC1=CC(=O)CC(C)(C)[C@@]1(O)/C=C/C(C)=C\C(=O)O` [ABA, abscisic acid, reference compound], in series [1], the “Crop load (percent) of treated trees compared to the untreated control” value was 80% and the Percent fruit set is on record as 69%.
In the case of `O=P(O)(O)CCCl` [Ethephon, 2-chloroethylphosphonic acid, reference compound], the “Gummosis (in words)” value in series [2] (Babygold #5 peaches, Table 11 study) is “substantially increased gummosis”. In addition, the “Scaffold Gummosis (0 = no gummosis to 5 = severe gummosis)” value in series [2] (rate not given, 10 mm fruitlet timing, scale 0-5) was determined as 4.7. Further, the Ethylene production in series [3] (200 ppm, 24 h after application, incubated at 25 C) is 41.0 nl/g leaf weight/h incubated; in series [3] (200 ppm, 24 h after application, incubated at 35 C) it was 133.1 nl/g leaf weight/h incubated; in series [3] (500 ppm, 1 h following spray application, 25 C (time course)) it was 153.4 nl/g leaf weight/h incubated; in series [3] (500 ppm, 4 h following spray application, 25 C (time course)), 102.5 nl/g leaf weight/h incubated; in series [3] (500 ppm, 15 h following spray application, 25 C (time course)), 106.0 nl/g leaf weight/h incubated; in series [3] (500 ppm, 24 h following spray application, 25 C (time course)) it was 90.8 nl/g leaf weight/h incubated. In series [3] (500 ppm, 48 h following spray application, 25 C (time course)), the Ethylene production is on record as 58.5 nl/g leaf weight/h incubated. Further, in series [4], the “Percent Fruit Set” value is on record as 8.4%.
